Each block holds one compound with its values, some of them ahead of it.
Columns and labels:
PI3-kinase = conditions: read-out: IC50, inhibitor of PI3-kinase; cited from earlier work
[1] = molecular target: mammalian Polo-like kinase (Homo sapiens, UniProt P53350); conditions: cited from earlier work
[2] = storage stability of isolated isomers; type: physicochemical
Protocol: A solution of 50.0 mg (0.136 mmol, 1.0 eq) of aldehyde 18 in 13.6 mL of dry CH2Cl2 was stirred in a 25 mL round bottom flask at room temperature under argon. To this solution was slowly added 271 μL (1.0 M in CH2Cl2, 0.271 mmol, 2.0 eq) of TiCl4. […] The solution was then diluted with CH2Cl2 and washed with H2O. The aqueous portion was then extracted three times with CH2Cl2. The combined organic fractions were then dried over MgSO4 and concentrated. Purification via silica gel chromatography (hexane/EtOAc) gave 20.4 mg (59%) of the syn-isomer 19-Syn and 5.4 mg (16%) of the anti-isomer 19-Anti as unstable brown oils. […] The decomposition was of a general nature and none of the stable, known retro-aldol product was observed.

PI3K-Beta = PI3K-Beta (Homo sapiens, UniProt P42338); assay: activity against PI3K-Beta; type: biochemical
Chain of PI3K-Beta (P42338 whole entry, species assumed): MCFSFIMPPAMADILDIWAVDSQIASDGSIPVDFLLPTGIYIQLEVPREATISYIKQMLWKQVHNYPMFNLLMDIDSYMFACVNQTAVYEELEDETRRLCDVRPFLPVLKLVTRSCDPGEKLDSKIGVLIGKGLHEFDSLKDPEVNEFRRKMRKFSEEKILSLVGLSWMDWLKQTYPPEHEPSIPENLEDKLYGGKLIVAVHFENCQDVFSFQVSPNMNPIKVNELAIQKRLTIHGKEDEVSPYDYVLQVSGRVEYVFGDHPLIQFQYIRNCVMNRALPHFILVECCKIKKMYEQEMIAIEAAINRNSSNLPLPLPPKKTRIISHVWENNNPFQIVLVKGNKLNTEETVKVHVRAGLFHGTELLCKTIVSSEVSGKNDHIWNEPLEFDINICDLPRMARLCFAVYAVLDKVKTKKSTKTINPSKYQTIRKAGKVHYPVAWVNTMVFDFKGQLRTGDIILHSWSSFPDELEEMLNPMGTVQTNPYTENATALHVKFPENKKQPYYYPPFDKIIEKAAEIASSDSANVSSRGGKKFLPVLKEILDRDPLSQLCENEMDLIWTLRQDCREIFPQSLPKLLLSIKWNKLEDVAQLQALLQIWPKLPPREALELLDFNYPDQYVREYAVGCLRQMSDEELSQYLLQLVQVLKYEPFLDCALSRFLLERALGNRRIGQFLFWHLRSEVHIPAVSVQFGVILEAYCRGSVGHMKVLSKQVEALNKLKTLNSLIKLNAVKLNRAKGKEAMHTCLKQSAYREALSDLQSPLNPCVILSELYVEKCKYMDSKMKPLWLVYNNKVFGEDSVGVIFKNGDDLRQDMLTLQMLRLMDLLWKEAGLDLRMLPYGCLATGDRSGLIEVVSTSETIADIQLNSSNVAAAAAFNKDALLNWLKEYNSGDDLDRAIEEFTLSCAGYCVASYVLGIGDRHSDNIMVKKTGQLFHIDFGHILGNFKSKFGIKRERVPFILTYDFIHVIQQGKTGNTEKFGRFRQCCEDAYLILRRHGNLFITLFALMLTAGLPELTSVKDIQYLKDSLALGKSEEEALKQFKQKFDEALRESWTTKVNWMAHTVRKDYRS
Chain of PI3K-Beta (P27986 whole entry partner, species assumed): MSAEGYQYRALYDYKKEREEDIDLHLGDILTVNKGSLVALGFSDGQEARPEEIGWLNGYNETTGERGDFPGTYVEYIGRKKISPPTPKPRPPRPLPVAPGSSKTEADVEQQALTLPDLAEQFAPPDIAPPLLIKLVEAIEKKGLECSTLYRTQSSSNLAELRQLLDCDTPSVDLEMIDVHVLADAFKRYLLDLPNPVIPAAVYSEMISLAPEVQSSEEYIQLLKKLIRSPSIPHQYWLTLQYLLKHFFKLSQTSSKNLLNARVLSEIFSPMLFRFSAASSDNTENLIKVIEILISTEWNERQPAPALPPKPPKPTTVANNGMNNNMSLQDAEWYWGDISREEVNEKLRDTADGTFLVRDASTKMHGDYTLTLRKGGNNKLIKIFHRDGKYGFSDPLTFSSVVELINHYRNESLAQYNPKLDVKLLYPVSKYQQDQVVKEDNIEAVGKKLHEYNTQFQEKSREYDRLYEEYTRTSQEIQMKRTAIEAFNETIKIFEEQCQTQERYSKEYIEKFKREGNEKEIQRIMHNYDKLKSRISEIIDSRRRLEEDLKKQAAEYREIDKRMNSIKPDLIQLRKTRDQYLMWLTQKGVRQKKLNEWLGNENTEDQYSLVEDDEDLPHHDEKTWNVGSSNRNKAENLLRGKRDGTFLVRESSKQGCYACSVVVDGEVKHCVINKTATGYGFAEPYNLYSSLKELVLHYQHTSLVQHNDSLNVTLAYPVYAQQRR
From the text: Novel furanosteroids produced according to the present method can be screened for biological activity using any conventional method. For example, PI3 kinase assays are disclosed by Yuan, et al. ((2005) Bioconjugate Chem, 16 (3): 669-675) and Fruman, et al. ((1999) Science 283:393-7). Assays for monitoring the assembly of peptide-MHC class II complexes (Song, et al. (1997) International Immunology 9:1709-1722) and mast cell exocytosis (Marquardt, et al. (1996) J. Immunol. 156:1942-1945) are known in the art as are assays for monitoring cell proliferation.

Chain of mammalian Polo-like kinase (P53350 whole entry): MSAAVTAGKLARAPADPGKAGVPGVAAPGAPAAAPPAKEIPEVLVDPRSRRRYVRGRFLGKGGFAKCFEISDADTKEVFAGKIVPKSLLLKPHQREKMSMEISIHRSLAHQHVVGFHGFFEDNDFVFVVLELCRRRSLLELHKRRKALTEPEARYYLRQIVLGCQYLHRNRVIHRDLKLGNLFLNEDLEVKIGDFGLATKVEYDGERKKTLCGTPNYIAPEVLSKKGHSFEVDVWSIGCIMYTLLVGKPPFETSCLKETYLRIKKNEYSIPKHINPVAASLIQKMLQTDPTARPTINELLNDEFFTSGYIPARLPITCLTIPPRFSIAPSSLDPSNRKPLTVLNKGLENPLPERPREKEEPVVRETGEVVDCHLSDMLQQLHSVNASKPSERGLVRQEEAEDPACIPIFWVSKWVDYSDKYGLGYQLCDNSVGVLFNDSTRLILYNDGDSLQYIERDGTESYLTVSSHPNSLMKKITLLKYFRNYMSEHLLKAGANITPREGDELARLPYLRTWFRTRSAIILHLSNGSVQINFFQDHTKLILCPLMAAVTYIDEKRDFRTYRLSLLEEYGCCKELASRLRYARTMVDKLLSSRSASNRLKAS

SMILES: COC[C@H]1OC(=O)c2coc3c2[C@@]1(C)C1=C(C3=O)[C@@H]2CC[C@H](O)[C@@]2(C)C[C@H]1OC(C)=O [17β-OH wortmannin]
IC50 (PI3-kinase): 0.5 nM

SMILES: COC[C@H]1OC(=O)c2coc3c2C1(C)C1=C(C3=O)[C@@H]2CCC(=O)C2(C)C[C@H]1OC(C)=O (some centres unmarked) [wortmannin]
inhibition of mammalian Polo-like kinase [1]: inhibit

SMILES: CC12c3ccccc3C(=O)c3occ(c31)CC[C@H]2O (stereo in doubt) [Compound 19-Syn, 1-Hydroxy-10b-methyl-1,2,3,10b-tetrahydro-5-oxa-acephenanthrylen-6-one]
stability in a refrigerator ([2]; refrigerator): stable in a refrigerator for several weeks
stability at room temperature ([2]; room temperature, prolonged periods, isolated brown oils): Neither isomer was stable at room temperature for prolonged periods

activity against PI3K-Beta (PI3K-Beta): sub-micromolar
SMILES: C[C@]12COC(=O)c3coc(c31)C(=O)c1ccccc12 [Compound 47]

Source: patent publication US8067583B2, “Method for synthesizing furanosteroids” (Trustees of Dartmouth College, priority 2006, dated 2011)
